Experimental data as given in patent US20020028807A1, “Non-nucleoside reverse transcriptase inhibitors” (priority 2000, published 2002).
pIC50: −log10 of the molar value.

Columns and labels:
Assay type in all cases: biochemical
HIV-1 RT G190A = molecular target: T1, HIV-1 RT G190A (Human immunodeficiency virus type 1 group M subtype B, UniProt P03366, G789A); assay: Reverse transcriptase (RT) assay, G190A mutant
T1 construct: an HIV RT clone pKRT2 containing only the RT p66 gene regulated by the lac operon/trc promoter; made in house; host or cells: E. coli JM109, vector pKK233-2
Source text: Among the enzymes for which Human Immunodeficiency Virus (HIV-1) encodes is a reverse transcriptase (1), so-named because it transcribes a DNA copy from an RNA template. This activity can be quantitatively measured in a cell-free enzyme assay and is based upon the observation that reverse transcriptase is able to use a synthetic template poly r(C) primed with a biotinylated oligo d(G) to transcribe a radio-labelled DNA strand utilising 3H-dGTP as a substrate. The assay described below utilises the wild-type enzyme (which is the predominant form of the enzyme observed in patients infected with HIV-1) and can also be used with mutant RT enzymes (for example, Y181C, prepared by site-directed mutagenesis in which the tyrosine residue at codon 181 has been replaced by a cysteine residue) in analogous assay conditions. This assay allows compounds to be evaluated for their effectiveness at inhibiting the mutant enzymes.
Some HIV-1 IIIB clone BH10 RT mutants were provided by Dr. C.-K. Shih (Boehringer Ingelheim Pharmaceutials Inc., U.S.A.) in the vector pKK233-2 (Pharmacia). Briefly an HIV RT clone pKRT2 containing only the RT p66 gene regulated by the lac operon/trc promoter was obtained from Dr. W. Summers (Yale University) (2). A variety of specific amino acid substitutions were introduced into the wild-type RT gene by site-directed mutagenesis. RT clones were subcloned into the pKK233-2 bacterial expression vector. Clones provided included wild-type, Val106Ala, Tyr181Cys, Tyr188Cys, Tyr188Leu, Gly190Ala and Pro236Leu. Others were made in-house by site-directed mutagenesis of the pKK233-2 RT clones including Lys103Asn, Lys103Asn/Tyr181Cys, Lys103Asn/Leu100Ile, Lys103Asn/Pro225His, and Lys103Asn/Val108Ile.
Purification of recombinant reverse transcriptase was performed using a combination of methods previously described (3). A single colony from a fresh plate of transformed JM109 cells was used to initiate growth of a pre-culture grown o/n at 37° C. Two liters of growth medium were inoculated with this pre-culture. At OD600˜1.5 (5-6 h at 37° C.), RT gene expression was induced with IPTG (1 mM final), and the fermentation was continued for a few more hours at 37° C. After centrifugation, supernatants were discarded while cell pellets were pooled and stored at −80° C. until purification. Cells were thawed at 4° C. overnight and suspended in lysis buffer (MES 50 mM pH 6, EDTA 1 mM, 10% v/v glyerol, 0.02% w/v OBG, 0.02% w/v sodium azide). Lysozyme was added and the mixture was incubated on ice for 40 minutes. After homogenization using a bounce in presence of lysozyme and sonication, the cells were centrifuged for 30 minutes. Supernatant (S1) was saved and stored at 4° C. The centrifuged pellet was resuspended in extraction buffer (MES 50 mM pH 6, KPO4 50 mM pH 6, KCl 100 mM, 10% v/v glycerol, 0.02% w/v OBG, 0.02% w/v sodium axide) and stirred for 30 minutes at 4° C. This second mixture was centrifuged again and the supernatant (S2) was saved. The above procedure was repeated 2 more times saving supernatants S3 and S4 and one last extraction was performed overnight (S5). Polymin P (0.005% final) was added to the combined supernatants to remove nucleic acids. This solution was stirred for 75 minutes at 4° C. and centrifuged for 1 h. The supernatant (SS1) was precipitated on ice with 20% w/v ammonium sulfate and stirred for 1 h at 4° C. The mixture was then centrifuged and the resulting supernatant (SS2) was precipitated with additional 40% w/v ammonium sulfate (60% total), stirred for 1 h and centrifuged again. The final pellet (P1) was stored overnight at 4° C. before undergoing purification the following day. All steps of the purification were performed at 4° C. unless otherwise stated.
Pellet (P1) was resuspended into MES 50 mM pH 6, KPO4 10 mM pH 6, KCl 100 mM, 10% v/v glycerol, 0.02% w/v OBG, 0.02% w/v sodium azide. The suspension was dialysis against the same buffer overnight using 12-14 kD MWCO dialysis tubing. […]

HIV-1 RT K103N/Y181C = molecular target: T2, HIV-1 RT K103N/Y181C (Human immunodeficiency virus type 1 group M subtype B, UniProt P03366, K702N/Y780C); assay: Reverse transcriptase (RT) assay, K103N/Y181C mutant
T2 construct: an HIV RT clone pKRT2 containing only the RT p66 gene regulated by the lac operon/trc promoter; made in house; host or cells: E. coli JM109, vector pKK233-2
In short: (§1)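 Cell-free assay in which recombinant mutant RT (HIV-1 IIIB clone BH10, made by site-directed mutagenesis) transcribes a radiolabelled DNA strand from a poly r(C) template primed with biotinylated oligo d(G), using 3H-dGTP as substrate. Inhibition is measured as reduced label incorporation, under conditions analogous to the wild-type enzyme assay.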

HIV-1 RT K103N/L100I = molecular target: T3, HIV-1 RT K103N/L100I (Human immunodeficiency virus type 1 group M subtype B, UniProt P03366, K702N/L699I); assay: Reverse transcriptase (RT) assay, K103N/L100I mutant
T3 construct: an HIV RT clone pKRT2 containing only the RT p66 gene regulated by the lac operon/trc promoter; made in house; host or cells: E. coli JM109, vector pKK233-2
In short: as §1

Q: Which results are given for `CCN1c2ncc(CCOc3cc[n+]([O-])c4ccccc34)cc2C(=O)N(C)c2cccnc21` [compound 21, 5,11-Dihydro-11-ethyl-5-methyl-8-{2-{(1-oxido-4-quinolinyl)oxy}ethyl}-6H-dipyrido[3,2-b:2′,3′-e][1,4]diazepin-6-one]?
A: pIC50 (HIV-1 RT G190A): 7.59; pIC50 (HIV-1 RT K103N/Y181C): 7.02; pIC50 (HIV-1 RT K103N/L100I): 6.77

Q: `CCN1c2ncc(CCOc3cc[n+]([O-])c4ccccc34)cc2C(=O)N(C)c2ccc(Cl)nc21` [compound 17, 2-Chloro-5,11-dihydro-11-ethyl-5-methyl-8-{2-{(1-oxido-4-quinolinyl)oxy}-ethyl}-6H-dipyrido[3,2-b:2′,3′-e][1,4]diazepin-6-one] was tested. Which pIC50 (HIV-1 RT G190A) did it give?
A: 7.60

Q: What about the pIC50 (HIV-1 RT K103N/Y181C) of the same compound?
A: 7.32

Q: And the pIC50 (HIV-1 RT K103N/L100I)?
A: 7.40

Q: What does the source list for `CCN1c2ncc(CCOc3cc[n+]([O-])c4ccccc34)cc2C(=O)N(C)c2ccc(F)nc21` [compound 11, 5,11-Dihydro-11-ethyl-2-fluoro-5-methyl-8-{2-{(1-oxido-4-quinolinyl)oxy}-ethyl}-6H-dipyrido[3,2-b:2′,3′-e][1,4]diazepin-6-one]?
A: pIC50 (HIV-1 RT G190A): 7.72; pIC50 (HIV-1 RT K103N/Y181C): 7.26; pIC50 (HIV-1 RT K103N/L100I): 6.99
